Laboratory results as given in ChEMBL document CHEMBL1201862, “PubChem BioAssay data set” (2004).
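Where inhibition never reached the appropriate level, the endpoint shown equals the highest concentration tested. Otherwise, values were interpolated linearly from a five-concentration, 48-hour dose response in 96-well plates. Abbreviation: GI50, concentration required for 50% inhibition of growth.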 Active and inactive are the calls of the source. Cut-off read from the data, not from the text of the source: active = GI50 up to about 1.1 µM and inactive = higher.

Key:
Assay in all cases: inhibition of tumour cell growth, NCI panel, 48 h
786-0 = test system: 786-0
A549 = test system: A549
ACHN = test system: ACHN
BT-549 = test system: BT-549
CAKI-1 = test system: CAKI-1
CCRF-CEM = test system: CCRF-CEM
COLO 205 = test system: COLO 205
DU-145 = test system: DU-145
EKVX = test system: EKVX
HCC 2998 = test system: HCC 2998
HCT-116 = test system: HCT-116
HCT-15 = test system: HCT-15
HL-60 = test system: HL-60
HOP-62 = test system: HOP-62
HOP-92 = test system: HOP-92
HT-29 = test system: HT-29
Hs-578T = test system: Hs-578T
IGROV-1 = test system: IGROV-1
K562 = test system: K562
KM12 = test system: KM12
LOX IMVI = test system: LOX IMVI
M14 = test system: M14
MCF7 = test system: MCF7
MDA-MB-231 = test system: MDA-MB-231
MDA-MB-435 = test system: MDA-MB-435
MDA-N = test system: MDA-N
MOLT-4 = test system: MOLT-4
Malme-3M = test system: Malme-3M
NCI-H226 = test system: NCI-H226
NCI-H23 = test system: NCI-H23
NCI-H460 = test system: NCI-H460
NCI-H522 = test system: NCI-H522
NCI/ADR-RES = test system: NCI/ADR-RES
OVCAR-3 = test system: OVCAR-3
OVCAR-4 = test system: OVCAR-4
OVCAR-5 = test system: OVCAR-5
OVCAR-8 = test system: OVCAR-8
PC-3 = test system: PC-3
RPMI-8226 = test system: RPMI-8226
RXF 393 = test system: RXF 393
SF-268 = test system: SF-268
SF-295 = test system: SF-295
SK-MEL-28 = test system: SK-MEL-28
SK-MEL-2 = test system: SK-MEL-2
SK-MEL-5 = test system: SK-MEL-5
SK-OV-3 = test system: SK-OV-3
SN12C = test system: SN12C
SNB-19 = test system: SNB-19
SNB-75 = test system: SNB-75
SR = test system: SR
T47D = test system: T47D
TK-10 = test system: TK-10
U-251 = test system: U-251
UACC-257 = test system: UACC-257
UACC-62 = test system: UACC-62
UO-31 = test system: UO-31
A498 = test system: A498
SF-539 = test system: SF-539
SW-620 = test system: SW-620

Measured: GI50

CCOC(=O)c1cc2ncccc2c2ccccc12
> 100 µM: HCT-15
inactive: 786-0 > 100 µM | A549 > 100 µM | ACHN > 100 µM | BT-549 > 100 µM | CAKI-1 > 100 µM | CCRF-CEM > 100 µM | COLO 205 > 100 µM | DU-145 > 100 µM | EKVX > 100 µM | HCC 2998 > 100 µM | HCT-116 > 100 µM | HL-60 > 100 µM | HOP-62 > 100 µM | HOP-92 > 100 µM | HT-29 > 100 µM | Hs-578T > 100 µM | IGROV-1 > 100 µM | K562 > 100 µM | KM12 > 100 µM | LOX IMVI > 100 µM | M14 > 100 µM | MCF7 > 100 µM | MDA-MB-231 > 100 µM | MDA-MB-435 > 100 µM | MDA-N > 100 µM | MOLT-4 > 100 µM | Malme-3M > 100 µM | NCI-H226 > 100 µM | NCI-H23 > 100 µM | NCI-H460 > 100 µM | NCI-H522 > 100 µM | NCI/ADR-RES > 100 µM | OVCAR-3 > 100 µM | OVCAR-4 > 100 µM | OVCAR-5 > 100 µM | OVCAR-8 > 100 µM | PC-3 > 100 µM | RPMI-8226 > 100 µM | RXF 393 > 100 µM | SF-268 > 100 µM | SF-295 > 100 µM | SK-MEL-28 > 100 µM | SK-MEL-2 > 100 µM | SK-MEL-5 > 100 µM | SK-OV-3 > 100 µM | SN12C > 100 µM | SNB-19 > 100 µM | SNB-75 > 100 µM | SR > 100 µM | T47D > 100 µM | TK-10 > 100 µM | U-251 > 100 µM | UACC-257 > 100 µM | UACC-62 > 100 µM | UO-31 > 100 µM

CNc1ccc(OC)cc1S(=O)(=O)c1ccccc1[N+](=O)[O-]
inactive: 786-0 > 100 µM | A498 47.4 µM | A549 98.2 µM | ACHN > 100 µM | BT-549 75.2 µM | CCRF-CEM 26.7 µM | COLO 205 > 100 µM | DU-145 > 100 µM | EKVX 47.1 µM | HCC 2998 > 100 µM | HCT-116 > 100 µM | HL-60 > 100 µM | HOP-62 > 100 µM | HT-29 > 100 µM | Hs-578T > 100 µM | IGROV-1 > 100 µM | K562 43.2 µM | LOX IMVI > 100 µM | M14 > 100 µM | MCF7 > 100 µM | MDA-MB-231 > 100 µM | MDA-MB-435 > 100 µM | MDA-N > 100 µM | MOLT-4 27 µM | Malme-3M 82.8 µM | NCI-H226 > 100 µM | NCI-H23 > 100 µM | NCI-H460 > 100 µM | NCI-H522 92.3 µM | NCI/ADR-RES 69.8 µM | OVCAR-3 > 100 µM | OVCAR-4 > 100 µM | OVCAR-5 > 100 µM | OVCAR-8 > 100 µM | PC-3 52.7 µM | RPMI-8226 > 100 µM | RXF 393 > 100 µM | SF-268 > 100 µM | SF-295 > 100 µM | SF-539 > 100 µM | SK-MEL-28 > 100 µM | SK-MEL-2 > 100 µM | SK-MEL-5 51.3 µM | SK-OV-3 > 100 µM | SN12C > 100 µM | SNB-19 > 100 µM | SNB-75 > 100 µM | SR > 100 µM | SW-620 > 100 µM | T47D 49.8 µM | TK-10 > 100 µM | U-251 > 100 µM | UACC-62 > 100 µM | UO-31 > 100 µM
> 100 µM: HCT-15

CCC(C)C(NC(=O)C(CCCC[N+](=N)N)NC(=O)C(CCCC[N+](=N)N)NC(=O)c1ccc(OC)cc1)C(=O)NC(CCCC[N+](=N)N)C(=O)N1CCCC1C(=O)NC(CCCCN)C(=O)NC(CC(C)C)C(N)=O (configuration not stated)
inactive: 786-0 > 100 µM | A498 > 100 µM | A549 > 100 µM | ACHN > 100 µM | BT-549 > 100 µM | CAKI-1 > 100 µM | CCRF-CEM > 100 µM | COLO 205 > 100 µM | DU-145 > 100 µM | EKVX > 100 µM | HCC 2998 > 100 µM | HCT-116 > 100 µM | HOP-62 > 100 µM | HT-29 > 100 µM | Hs-578T > 100 µM | K562 > 100 µM | KM12 > 100 µM | LOX IMVI > 100 µM | M14 > 100 µM | MCF7 > 100 µM | MDA-MB-231 > 100 µM | MDA-MB-435 > 100 µM | MDA-N > 100 µM | MOLT-4 > 100 µM | Malme-3M > 100 µM | NCI-H226 > 100 µM | NCI-H23 > 100 µM | NCI-H460 > 100 µM | NCI-H522 > 100 µM | NCI/ADR-RES > 100 µM | OVCAR-3 > 100 µM | OVCAR-4 > 100 µM | OVCAR-5 > 100 µM | OVCAR-8 > 100 µM | PC-3 > 100 µM | RPMI-8226 > 100 µM | RXF 393 > 100 µM | SF-268 > 100 µM | SF-295 > 100 µM | SF-539 > 100 µM | SK-MEL-28 > 100 µM | SK-MEL-5 > 100 µM | SK-OV-3 > 100 µM | SN12C > 100 µM | SNB-19 > 100 µM | SNB-75 > 100 µM | SR > 100 µM | SW-620 > 100 µM | T47D > 100 µM | TK-10 > 100 µM | U-251 > 100 µM | UACC-257 > 100 µM | UACC-62 > 100 µM | UO-31 > 100 µM
> 100 µM: HCT-15

CN(CCCn1ccnc1[N+](=O)[O-])CCCn1ccnc1[N+](=O)[O-]
> 100 µM: HCT-15
active: MOLT-4 0.0861 µM
inactive: 786-0 > 100 µM | A498 > 100 µM | A549 > 100 µM | ACHN > 100 µM | BT-549 > 100 µM | CAKI-1 > 100 µM | CCRF-CEM 8.41 µM | COLO 205 > 100 µM | DU-145 > 100 µM | EKVX > 100 µM | HCT-116 > 100 µM | HL-60 > 100 µM | HOP-62 > 100 µM | HT-29 > 100 µM | Hs-578T > 100 µM | IGROV-1 > 100 µM | K562 > 100 µM | KM12 > 100 µM | LOX IMVI > 100 µM | M14 > 100 µM | MCF7 > 100 µM | MDA-MB-231 > 100 µM | MDA-MB-435 > 100 µM | MDA-N > 100 µM | Malme-3M > 100 µM | NCI-H226 > 100 µM | NCI-H23 > 100 µM | NCI-H460 > 100 µM | NCI-H522 > 100 µM | NCI/ADR-RES > 100 µM | OVCAR-3 > 100 µM | OVCAR-4 > 100 µM | OVCAR-5 > 100 µM | OVCAR-8 > 100 µM | PC-3 > 100 µM | RPMI-8226 > 100 µM | RXF 393 > 100 µM | SF-268 > 100 µM | SF-295 > 100 µM | SF-539 > 100 µM | SK-MEL-28 > 100 µM | SK-MEL-2 > 100 µM | SK-MEL-5 > 100 µM | SK-OV-3 > 100 µM | SN12C > 100 µM | SNB-75 > 100 µM | SR > 100 µM | SW-620 > 100 µM | T47D > 100 µM | TK-10 > 100 µM | U-251 > 100 µM | UACC-257 > 100 µM | UACC-62 > 100 µM | UO-31 > 100 µM
